The source of these data is ChEMBL document CHEMBL1147653, “Identification of type 1 inosine monophosphate dehydrogenase as an antiangiogenic drug target” (J Med Chem, 2006).

SMILES strings stand for the structures. Activity calls are given as the source filed them. No cut-off for these calls is given here.

For assay [1], the system named is HUVEC. Nature of the assay: Antiproliferative activity against HUVEC as measured by [3H]thymidine incorporation. In kind it is functional, cell-based. Particulars: Homo sapiens. A general note: Dividing cells build labelled thymidine or BrdU into new DNA.
In assay [2] the test system is Jurkat. The experiment in a line: Antiproliferative activity against Jurkat T cells as measured by [3H]thymidine incorporation. In kind it is functional, cell-based. Particulars: Homo sapiens.
The test system of assay [3] is HUVEC. The experiment in a line: Antiproliferative activity against HUVEC in presence of 20 uM guanine as measured by [3H]thymidine incorporation. Particulars: Homo sapiens. The format is functional, cell-based.
Assay [4] relates to Jurkat. The experiment in a line: Antiproliferative activity against Jurkat T cells in presence of 20 uM guanine as measured by [3H]thymidine incorporation. Particulars: Homo sapiens. The format is functional, cell-based.
Assay [5] has as its system HUVEC. The experiment in a line: Cell cycle arrest at G1 phase in HUVEC at 1 uM. In kind it is functional. Particulars: Homo sapiens.
Assay [6] deals with HUVEC. Nature of the assay: Cell cycle arrest at S phase in HUVEC at 1 uM. In kind it is functional. Particulars: Homo sapiens.
In assay [7] the test system is HUVEC. Nature of the assay: Cell cycle arrest at G2/M phase in HUVEC at 1 uM. In kind it is functional. Particulars: Homo sapiens.
Assay [8] has as its system HUVEC. The experiment in a line: Cell cycle arrest at G1 phase in HUVEC at 1 uM in presence of 50 uM guanosine. The format is functional, Homo sapiens.
For assay [9], the system named is HUVEC. Nature of the assay: Cell cycle arrest at S phase in HUVEC at 1 uM in presence of 50 uM guanosine. In kind it is functional, Homo sapiens.
Assay [10] relates to HUVEC. Nature of the assay: Cell cycle arrest at G2/M phase in HUVEC at 1 uM in presence of 50 uM guanosine. In kind it is functional, Homo sapiens.
The subject of assay [11] is Mus musculus. The experiment in a line: Antiangiogenic activity in mouse at 60 mg/kg/day, sc. In kind it is functional. Particulars: route subcutaneous.
For assay [12], the species on record is Mus musculus. The experiment in a line: Inhibition of tumor-induced angiogenesis in RENCA mouse model. The format is functional, organism-based.

In general, IC50 refers to the midpoint of a concentration-inhibition curve. A low value points to greater potency in that assay. One may read the inhibition as the share of the control response that was lost under treatment. As a reminder, the Inhibition is the drop in the measured response relative to a control, in per cent. One may read the inhibition in vivo as the share of the control response that was lost under treatment. A low value points to little suppression. For `COc1c(C)c2c(c(O)c1C/C=C(\C)CCC(=O)O)C(=O)OC2` [MYCOPHENOLIC ACID], the results for the IC50 in [1] and in assay [2] were 99.2 nM and 128 nM, respectively. The outcome in assay [3] and in assay [4] was inactive. Moreover, the inhibition at 1 µM in [5] amounted to 81%; in [6], 6.5%; in [7], 12.4%. For the same compound, the Inhibition is on record as 71% in assay [8], 11.8% in [9] and 17% in assay [10]. For the same compound, in assay [11], the inhibition in vivo at 60 mg/kg/day is 69%. Moreover, the inhibition entry in [12] is “Dose-dependent effect”.
